The conditions of data set [1]: compared with F3P; cited from earlier work.
The nature of data set [2]: pKa of the phosphorylated metabolites (Table 1). Type of data set: physicochemical. The source says:
While the toxic potential and precise structures of compounds a and b are not known, they have many characteristics in common with S3P and F3P, such as unique chemical shifts, large ^1 H-^31 P spin-spin coupling constants and unusually low pKa' values (see Table 1). In these properties, Compounds a and b differ substantially from other phosphomonoesters and thus appear to belong to the same class of compounds as S3P and F3P. […] There is a good correlation between these elevated concentrations and the presence of clinical symptoms of diabetic complications such as retinopathy, peripheral neuropathy and peripheral vascular disease. This correlation is especially striking when one compares the sum of the concentrations of compounds a and b with the concentration of S3P ([a]+[b]/[S3P]).
Compound (at pH 7.5) (Hz) pKa

Data set [3] deals with erythrocytes. Put plainly: Effect of fructose-3-phosphate on red cell viability, 31P NMR. Type of data set: cell-based, human. As to the method:
FIGS. 3A-C are ^31 P NMR spectra showing the effect of fructose-3-phosphate on red cell viability.
Spectra were collected in 250-5000 scans using a 60° pulse and a 1.5 sec. repetition rate.
FIGS. 3A-C illustrates the results of an experiment which confirms that this indeed is the case for erythrocytes. […] This phenomenon indicates very strongly that F3P is indeed a toxic agent which, at sufficiently high concentration, leads to an irreversible decline in cell function and ultimately to cell death.

Data set [4] is described as follows: Glycosylating activity and lability. The source says:
A difficult problem encountered in the medical treatment of diabetes has been the inability to identify those diabetic patients who are at risk of experiencing some diabetes-associated pathologic condition, so as to effect timely intervention. […] Kato, M., Hayase, F., Shin, D. B., Oimomi, M. and Baba, S. (1989), The Maillard Reaction in Aging, Diabetes and Nutrition, J. W. Baynes and V. M. Monnier, eds, at 69-84 (Liss, New York, 1989).

Where [5] appears, read: erythrocytes loaded with F3P, then 12 hrs. in fructose-free medium.

The text below walks through data of patent publication US5231031A, “Method for assessing risk of diabetes-associated pathologic conditions and efficacy of therapies for such conditions” (priority 1990, dated 1993).

`O=CC(=O)C[C@H](O)[C@H](O)CO` [Compound 3dG, 3-deoxyglucosone]: in data set [1], the “glycosylating and cross-linking potency” value was “even more potent Maillard glycosylating and cross-linking agent”.
As to `O=C(CO)[C@@H](OP(=O)(O)O)[C@H](O)[C@H](O)CO` [Compound F3P, fructose-3-phosphate], the pKa in data set [2] was 5.6. Also, in data set [3] (at sufficiently high concentration), the toxicity to erythrocytes result was “toxic agent”. Also, in data set [3] (setting [5]), the “concentration of ATP” value is “dramatic decrease” and the “hemolysis of the cells” value is “extensive hemolysis”. In data set [4], the glycosylating potency result is “relatively potent glycosylating agent”. Besides, the lability entry in data set [4] (especially in the presence of amines, breaks down to 3-deoxyglucosone) is given as “quite labile”.
On to `O=P(O)(O)O[C@@H]([C@H](O)[C@H](O)CO)[C@@H](O)CO` [Compound S3P, sorbitol-3-phosphate], for which, in data set [2], the pKa was 5.4.
